Data published in patent US4689331A, “Substituted 2-pyridinyl benzimidazoles, and their use for inhibiting gastric acid secretion” (priority 1984, dated 1987).

Assays:
[1] = molecular target: T1, gastric H^+,K^+ -ATPase (Sus scrofa, UniProt P19156); assay: In vitro inhibition of gastric H+,K+-ATPase; format: biochemical; settings: hog gastric membrane, pH 7.4, 30 min incubation, negative log of concentration (M) giving 50% inhibition
T1 construct: from tissue; host or cells: hog stomach, purified membrane fraction (GI fraction of Saccomani et al. 1977)
T1 sequence (P19156 2-1034 limits assumed): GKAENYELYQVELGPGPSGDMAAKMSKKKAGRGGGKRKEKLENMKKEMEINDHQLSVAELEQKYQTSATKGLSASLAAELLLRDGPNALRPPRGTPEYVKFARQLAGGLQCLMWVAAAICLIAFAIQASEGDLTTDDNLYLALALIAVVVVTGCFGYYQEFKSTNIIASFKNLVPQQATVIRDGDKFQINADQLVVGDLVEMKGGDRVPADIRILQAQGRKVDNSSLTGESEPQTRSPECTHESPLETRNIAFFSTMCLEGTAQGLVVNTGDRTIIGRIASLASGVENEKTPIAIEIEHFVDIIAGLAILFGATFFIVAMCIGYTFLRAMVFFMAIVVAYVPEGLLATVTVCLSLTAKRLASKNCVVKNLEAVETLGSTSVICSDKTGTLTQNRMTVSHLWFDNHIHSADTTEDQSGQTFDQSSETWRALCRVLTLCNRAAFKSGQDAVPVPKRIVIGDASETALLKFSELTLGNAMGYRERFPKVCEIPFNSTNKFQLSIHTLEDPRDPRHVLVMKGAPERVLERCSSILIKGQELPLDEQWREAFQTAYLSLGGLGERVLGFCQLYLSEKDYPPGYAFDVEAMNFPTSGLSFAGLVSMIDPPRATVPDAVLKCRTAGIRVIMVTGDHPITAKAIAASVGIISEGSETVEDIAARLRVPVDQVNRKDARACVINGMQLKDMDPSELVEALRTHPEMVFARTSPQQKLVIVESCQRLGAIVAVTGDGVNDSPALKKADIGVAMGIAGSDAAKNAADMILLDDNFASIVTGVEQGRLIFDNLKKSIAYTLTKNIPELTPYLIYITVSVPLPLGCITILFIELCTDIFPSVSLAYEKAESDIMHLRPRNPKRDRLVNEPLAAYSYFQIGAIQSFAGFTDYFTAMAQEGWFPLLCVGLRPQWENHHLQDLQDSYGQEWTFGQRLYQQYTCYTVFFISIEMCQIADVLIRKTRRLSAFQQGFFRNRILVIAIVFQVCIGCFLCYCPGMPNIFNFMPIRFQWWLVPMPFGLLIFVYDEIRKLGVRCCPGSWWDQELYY
T1 sequence (P18434 whole entry partner): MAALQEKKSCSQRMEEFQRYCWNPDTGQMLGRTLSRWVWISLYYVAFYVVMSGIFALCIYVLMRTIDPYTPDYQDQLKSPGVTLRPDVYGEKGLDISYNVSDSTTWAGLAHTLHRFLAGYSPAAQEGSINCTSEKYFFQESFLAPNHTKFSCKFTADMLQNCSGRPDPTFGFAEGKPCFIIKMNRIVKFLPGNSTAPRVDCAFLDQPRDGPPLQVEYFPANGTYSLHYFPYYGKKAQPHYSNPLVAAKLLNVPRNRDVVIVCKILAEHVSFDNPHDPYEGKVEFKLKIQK
Experimental: I. In vitro inhibition of gastric H^+,K^+ -ATPase
Hog gastric H^+,K^+ -ATPase was purified according to Saccomani et al., Biochim. Biophys. Acta 465, 311-330, 1977. 10 μg of membrane protein (GI-fraction in the reference listed above) was incubated with 2 mmol/l of piperazine-N,N'bis-(2-ethane sulfonic acid) buffer pH 7.4 and the test compound in concentrations 10^-7 -10^-4 M in a final volume of 1 ml. (The test compound was dissolved in methanol. Aliquots of these stock solutions were diluted to a final methanol concentration below 1%, which on its own had no effect on the enzyme activities.) After 30 minutes of incubation, the remaining H^+,K^+ -ATPase activity was determined, according to Wallmark et al., Biochim. Biophys. Acta, 728, 31-38, 1983. A dose-response curve was constructed and the concentration at half-maximal inhibition (IC50) could be determined.
pIC50 is the negative logarithm of the concentration (in M) of the test compound giving 50% inhibition.

[2] = test system: gastric acid secretion; assay: Inhibiting effect in vivo on gastric acid secretion in conscious dog; settings: conscious chronic gastric fistula dog, oral by stomach tube, histamine-induced secretion, 1 h after dosing, peak inhibitory effect
Experimental: II. Inhibiting effect in vivo on gastric acid secretion in conscious dog
Chronic gastric fistula dogs were used. These dogs have been surgically provided with a gastric cannula in the stomach and a duodenal fistula used for direct intraduodenal administration of test compounds. Following a 4 week's recovery period after surgery, tests were performed once a week on each dog. Food and water were withdrawn 18 hours before each test.
The test compound dissolved in 5% ethanol in 0.5% Methocel® (90 HG, 15.000, Dow Chem Corp.) was administered orally by using a stomach tube. After 1 hour gastric acid secretion was induced by continuous infusion of histamine at individual doses (400-600 nmol/kg, h), resulting in approx. 90% of maximal secretion of gastric acid. The gastric juice was collected by free flow from the gastric cannula in consecutive 30 minutes samples for 2 hours. The samples were titrated to pH 7.0 with 0.1M NaOH using a Radiometer automatic titrator and the acid output was calculated. The percent inhibition of acid secretion was calculated by comparing in each dog the acid output in the test to the acid output in control tests when only the vehicle was given. The peak inhibitory effect for each compound was determined.

[3] = test system: ethanol-induced gastric lesions; assay: In vivo cytoprotective effect: effect on ethanol-induced gastric lesions in the rat; parameters: species or system rat (female Spraque-Dawley); settings: oral, 30 min before 1 ml absolute ethanol, dose giving 50% reduction of total lesion length vs control (11.0 cm); for ED50: Rattus norvegicus, read-out: III Rat Cytoprot. ED50
Experimental: III. In vivo cytoprotective effect: Effect on ethanol-induced gastric lesions in the rat
Two groups of female Spraque-Dawley rats (190-220 g) were used, one for the test compound and one for the control experiment. Food, but not water, was removed 24 h before the experiments.
The animals in the test group were treated orally with the test compound dissolved in 10% ethanol in 0.5% Methocel® immediately before use and the animals in the control group were given the vehicle only in a dose of 2.5 ml/kg.
Thirty minutes later the rats were given orally 1 ml of absolute ethanol (a standard agent for inducing gastric mucosal lesions).
Sixty minutes later the rats were killed by carbon dioxide asphyxiation, their stomachs dissected out and the gastric mucosae were examined for the presence of necrotic lesions. The total lengths of the lesions in the stomachs were measured in the test group and in the control group, in both cases treated thirty minutes before with ethanol.
The ED50 -value represents the dose of the compound giving 50% reduction of the total lengths of lesions compared to the total lengths of lesions of the control experiment (11.0 cm).

I Enzyme pIC50 [1] | IC50 ([1]; read-out: I Enzyme pIC50 (converted)) [M] | SMILES | II Dog Gast. acid secr. inhib. ED50 [2] [µmol/kg] | III Rat Cytoprot. ED50 [3] [µmol/kg] | ED50 [3] [µmol/kg] | ED50 ([2]; Canis lupus familiaris, read-out: II Dog Gast. acid secr. inhib. ED50) [µmol/kg]
5.0 | – | COc1ccc2[nH]c(-[n+]3cc(C)c(OC)c(C)c3CSSCCO)nc2c1.[O-][Cl+3]([O-])([O-])[O-] [Example 1, 3,5-dimethyl-4-methoxy-2-[(2-hydroxyethyl)dithiomethyl]-1-(5-methoxy-2-benzimidazolyl)-pyridiniumperchlorate] | 6 | 15 | – | –
– | 3.16e-05 | COc1ccc2[n-]c(-[n+]3cc(C)c(OC)c(C)c3CSSCC(=O)O)nc2c1 [Example 7] | – | – | 30 | –
– | – | COc1c(C)c[n+](-c2nc3ccccc3[n-]2)c(CSC#N)c1C [Example 14] | – | – | 20 | 9
